Reference: PubChem BioAssay AID1259407 (Chemical Carcinogenesis Research Information System (CCRIS), 2018)
The source made the active and inactive calls. The rule behind the calls is not given here.

Tested on: CCRIS mutagenicity, Ames/micronucleus/aberration tests
Experiment: CCRIS mutagenicity studies
[1] = Test System: AMES SALMONELLA TYPHIMURIUM, Strain/Indicator: TA98, Metabolic Activation: NONE, Method: PREINCUBATION
[2] = Test System: AMES SALMONELLA TYPHIMURIUM, Strain/Indicator: TA98, Metabolic Activation: NONE, Method: STANDARD PLATE
[3] = Test System: AMES SALMONELLA TYPHIMURIUM, Strain/Indicator: TA98, Metabolic Activation: RAT, LIVER, S-9, AROCLOR 1254, Method: STANDARD PLATE
[4] = Test System: AMES SALMONELLA TYPHIMURIUM, Strain/Indicator: TA100, Metabolic Activation: NONE, Method: STANDARD PLATE
[5] = Test System: AMES SALMONELLA TYPHIMURIUM, Strain/Indicator: TA100, Metabolic Activation: RAT, LIVER, S-9, AROCLOR 1254, Method: STANDARD PLATE

## Cc1ccc(N)c(S(=O)(=O)O)c1
Test System: AMES SALMONELLA TYPHIMURIUM, Strain/Indicator: TA98, Metabolic Activation: HAMSTER, LIVER, S-9, AROCLOR 1254, Method: STANDARD PLATE
  mutagenic call: inactive; negative
[1]
  mutagenic call: inactive; negative
[2]
  mutagenic call: inactive; negative
Test System: AMES SALMONELLA TYPHIMURIUM, Strain/Indicator: TA98, Metabolic Activation: RAT LIVER S-9, PHENOBARBITAL AND BETA-NAPHTHOFLAVONE, Method: PREINCUBATION
  mutagenic call: inactive; negative
[3]
  mutagenic call: inactive; negative
Test System: AMES SALMONELLA TYPHIMURIUM, Strain/Indicator: TA100, Metabolic Activation: HAMSTER, LIVER, S-9, AROCLOR 1254, Method: STANDARD PLATE
  mutagenic call: inactive; negative
Test System: AMES SALMONELLA TYPHIMURIUM, Strain/Indicator: TA100, Metabolic Activation: NONE, Method: PREINCUBATION
  mutagenic call: inactive; negative
[4]
  mutagenic call: inactive; negative
Test System: AMES SALMONELLA TYPHIMURIUM, Strain/Indicator: TA100, Metabolic Activation: RAT LIVER S-9, PHENOBARBITAL AND BETA-NAPHTHOFLAVONE, Method: PREINCUBATION
  mutagenic call: inactive; negative
[5]
  mutagenic call: inactive; negative
Test System: AMES SALMONELLA TYPHIMURIUM, Strain/Indicator: TA102, Metabolic Activation: NONE, Method: PREINCUBATION
  mutagenic call: inactive; negative
Test System: AMES SALMONELLA TYPHIMURIUM, Strain/Indicator: TA102, Metabolic Activation: RAT LIVER S-9, PHENOBARBITAL AND BETA-NAPHTHOFLAVONE, Method: PREINCUBATION
  mutagenic call: inactive; negative
Test System: AMES SALMONELLA TYPHIMURIUM, Strain/Indicator: TA104, Metabolic Activation: NONE, Method: PREINCUBATION
  mutagenic call: inactive; negative
Test System: AMES SALMONELLA TYPHIMURIUM, Strain/Indicator: TA104, Metabolic Activation: RAT LIVER S-9, PHENOBARBITAL AND BETA-NAPHTHOFLAVONE, Method: PREINCUBATION
  mutagenic call: inactive; negative
Test System: AMES SALMONELLA TYPHIMURIUM, Strain/Indicator: TA1535, Metabolic Activation: HAMSTER, LIVER, S-9, AROCLOR 1254, Method: STANDARD PLATE
  mutagenic call: inactive; negative
Test System: AMES SALMONELLA TYPHIMURIUM, Strain/Indicator: TA1535, Metabolic Activation: NONE, Method: PREINCUBATION
  mutagenic call: inactive; negative
Test System: AMES SALMONELLA TYPHIMURIUM, Strain/Indicator: TA1535, Metabolic Activation: NONE, Method: STANDARD PLATE
  mutagenic call: inactive; negative
Test System: AMES SALMONELLA TYPHIMURIUM, Strain/Indicator: TA1535, Metabolic Activation: RAT LIVER S-9, PHENOBARBITAL AND BETA-NAPHTHOFLAVONE, Method: PREINCUBATION
  mutagenic call: inactive; negative
Test System: AMES SALMONELLA TYPHIMURIUM, Strain/Indicator: TA1535, Metabolic Activation: RAT, LIVER, S-9, AROCLOR 1254, Method: STANDARD PLATE
  mutagenic call: inactive; negative
Test System: AMES SALMONELLA TYPHIMURIUM, Strain/Indicator: TA1537, Metabolic Activation: HAMSTER, LIVER, S-9, AROCLOR 1254, Method: STANDARD PLATE
  mutagenic call: inactive; negative
Test System: AMES SALMONELLA TYPHIMURIUM, Strain/Indicator: TA1537, Metabolic Activation: NONE, Method: PREINCUBATION
  mutagenic call: inactive; negative
Test System: AMES SALMONELLA TYPHIMURIUM, Strain/Indicator: TA1537, Metabolic Activation: NONE, Method: STANDARD PLATE
  mutagenic call: inactive; negative
Test System: AMES SALMONELLA TYPHIMURIUM, Strain/Indicator: TA1537, Metabolic Activation: RAT LIVER S-9, PHENOBARBITAL AND BETA-NAPHTHOFLAVONE, Method: PREINCUBATION
  mutagenic call: inactive; negative
Test System: AMES SALMONELLA TYPHIMURIUM, Strain/Indicator: TA1537, Metabolic Activation: RAT, LIVER, S-9, AROCLOR 1254, Method: STANDARD PLATE
  mutagenic call: inactive; negative
Test System: AMES SALMONELLA TYPHIMURIUM, Strain/Indicator: TA1538, Metabolic Activation: HAMSTER, LIVER, S-9, AROCLOR 1254, Method: STANDARD PLATE
  mutagenic call: inactive; negative
Test System: AMES SALMONELLA TYPHIMURIUM, Strain/Indicator: TA1538, Metabolic Activation: NONE, Method: STANDARD PLATE
  mutagenic call: inactive; negative
Test System: AMES SALMONELLA TYPHIMURIUM, Strain/Indicator: TA1538, Metabolic Activation: RAT, LIVER, S-9, AROCLOR 1254, Method: STANDARD PLATE
  mutagenic call: inactive; negative
Test System: E.COLI, Strain/Indicator: WP2UVRA/PKM101, Metabolic Activation: NONE, Method: PREINCUBATION
  mutagenic call: inactive; negative
Test System: E.COLI, Strain/Indicator: WP2UVRA/PKM101, Metabolic Activation: RAT LIVER S-9, PHENOBARBITAL AND BETA-NAPHTHOFLAVONE, Method: PREINCUBATION
  mutagenic call: inactive; negative
Test System: E.COLI, Strain/Indicator: WP2UVRA, Metabolic Activation: NONE, Method: PREINCUBATION
  mutagenic call: inactive; negative
Test System: E.COLI, Strain/Indicator: WP2UVRA, Metabolic Activation: RAT LIVER S-9, PHENOBARBITAL AND BETA-NAPHTHOFLAVONE, Method: PREINCUBATION
  mutagenic call: inactive; negative
Test System: MOUSE LYMPHOMA, Strain/Indicator: L5178Y (TK+/TK-), Metabolic Activation: NONE, Method: SUSPENSION/PLATE
  mutagenic call: inactive; negative. reevaluation of results: negative
Test System: MOUSE LYMPHOMA, Strain/Indicator: L5178Y (TK+/TK-), Metabolic Activation: RAT, LIVER, S-9, AROCLOR 1254, Method: SUSPENSION/PLATE
  mutagenic call: inactive; negative. reevaluation of results: equivocal
Test System: UDS RODENT HEPATOCYTES, Strain/Indicator: THY INCORP (NON-S-PHASE), Metabolic Activation: NONE, Method: AUTORADIOGRAPHY
  mutagenic call: inactive; negative

## C[N+](C)(C)CC(=O)O
[4]
  mutagenic call: inactive; negative
[5]
  mutagenic call: inactive; negative

## COc1cccc(C=O)c1O
[2]
  mutagenic call: inactive; negative
[4]
  mutagenic call: inactive; negative
Test System: E. COLI, Strain/Indicator: CM561 LEXA, Metabolic Activation: NONE, Method: STANDARD PLATE
  mutagenic call: inactive; negative
Test System: E. COLI, Strain/Indicator: CM611 UVRA/LEXA, Metabolic Activation: NONE, Method: STANDARD PLATE
  mutagenic call: inactive; negative
Test System: E. COLI, Strain/Indicator: WP2 UVRA, Metabolic Activation: NONE, Method: STANDARD PLATE
  mutagenic call: inactive; negative

## O=[N+]([O-])c1ccc2ccc3c4c(cc5ccc1c2c53)CCCC4
[2]
  mutagenic call: active; positive
[4]
  mutagenic call: inactive; negative

## CC(C)(S)[C@H](N)C(=O)O
Test System: AMES SALMONELLA TYPHIMURIUM, Strain/Indicator: TA92, Metabolic Activation: NONE, Method: STANDARD PLATE
  mutagenic call: active; positive
Test System: AMES SALMONELLA TYPHIMURIUM, Strain/Indicator: TA92, Metabolic Activation: RAT, KIDNEY, S-9, Method: STANDARD PLATE
  mutagenic call: active; positive
Test System: AMES SALMONELLA TYPHIMURIUM, Strain/Indicator: TA92, Metabolic Activation: RAT, LIVER, S-9, Method: STANDARD PLATE
  mutagenic call: active; positive
[4]
  mutagenic call: active; positive
Test System: AMES SALMONELLA TYPHIMURIUM, Strain/Indicator: TA100, Metabolic Activation: RAT, KIDNEY, S-9, Method: STANDARD PLATE
  mutagenic call: active; positive
Test System: AMES SALMONELLA TYPHIMURIUM, Strain/Indicator: TA100, Metabolic Activation: RAT, LIVER, S-9, Method: STANDARD PLATE
  mutagenic call: active; positive
Test System: AMES SALMONELLA TYPHIMURIUM, Strain/Indicator: TA102, Metabolic Activation: NONE, Method: STANDARD PLATE
  mutagenic call: active; positive

## c1cc2ccc3cccc4ncc(c1)c2c34
[3]
  mutagenic call: active; positive
[5]
  mutagenic call: active; positive

## C[C@H](CCC(=O)O)[C@H]1CC[C@H]2[C@@H]3C(=O)C[C@@H]4CC(=O)CC[C@]4(C)[C@H]3CC[C@]12C
Test System: AMES SALMONELLA TYPHIMURIUM, Strain/Indicator: TA98, Metabolic Activation: NONE, Method: FLUCTUATION TEST
  mutagenic call: inactive; negative
[1]
  mutagenic call: inactive; negative
Test System: AMES SALMONELLA TYPHIMURIUM, Strain/Indicator: TA98, Metabolic Activation: RAT, LIVER, S-9, PCB, Method: PREINCUBATION
  mutagenic call: inactive; negative
Test System: AMES SALMONELLA TYPHIMURIUM, Strain/Indicator: TA100, Metabolic Activation: NONE, Method: FLUCTUATION TEST
  mutagenic call: inactive; negative

## COC(=O)C1(C(N)=O)OC1(C)C(O)C(C)C (configuration not stated)
Test System: AMES SALMONELLA TYPHIMURIUM, Strain/Indicator: TA98, Metabolic Activation: NONE, Method: DISK ASSAY
  mutagenic call: inactive; negative
[2]
  mutagenic call: inactive; negative
Test System: AMES SALMONELLA TYPHIMURIUM, Strain/Indicator: TA98, Metabolic Activation: RAT, LIVER, S-9, AROCLOR 1254, Method: DISK ASSAY
  mutagenic call: inactive; negative
[3]
  mutagenic call: active; positive
[4]
  mutagenic call: inactive; negative
[5]
  mutagenic call: inactive; negative
